Data on four compounds can be found in patent US6340686B1, “Thienopyrimidine compounds, their production and use” (Takeda Chemical Industries, Ltd., priority 1999, dated 2002).

The IC50 is the midpoint of a concentration-inhibition curve. Usually inhibition stands for the share of the control response that was lost under treatment. A word on the melting point: it is the temperature of the solid-liquid transition.

One data set has as its system plasma LH. Put plainly: Suppression of plasma LH in castrated monkeys. Format: in vivo, cynomolgus monkeys (Macaca fascicularis). As to conditions: castrated male cynomolgus monkeys. The protocol: The Example compound No. 2 was orally administered to castrated male cynomolgus monkeys (Macaca fascicularis), and plasma LH was quantified. The male cynomolgus monkeys, used at 4 years 9 months to 6 years 3 months of age at time of experimentation, had been castrated more than 3 months prior to the examination. Test animals [n=3] were given 30 mg/kg (3 ml/kg) of the compound suspended in 0.5% methyl cellulose at a final concentration of 1% by oral administration, and control animals [n=2] were given 3 ml/kg of the 0.5% methyl cellulose dispersant alone by oral administration. At 24 hours and immediately before administration and at 2, 4, 6, 8, 24, and 48 hours after administration, blood was collected for heparinized plasma samples via the femoral vein and immediately stored under freezing conditions.
Plasma LH concentrations were determined by a bioassay using mouse testicular cells. The testicular cells were collected from male BALB/c mice (8 to 9 weeks of age) and washed three times with 1 ml of Dulbecco's modified Eagle medium. (DMEM-H) containing 20 mM HEPES and 0.2% BSA per testis. After incubation at 37° C. for 1 hour, the cells were passed through a nylon mesh filter (70 μm) and dispensed to test tubes at 8×10^5 cells/tube. After the cells were washed twice with 0.4 ml of DMEM-H, 0.4 ml of a DMEM-H solution containing either equine LH (Sigma Company), as the standard LH, or monkey plasma, previously diluted up to 300 fold, as the test sample, was added, followed by a reaction at 37° C. for 2 hours. The testosterone concentration in the culture supernatant was determined by a radioimmunoassay (CIS Diagnostics Company), and the LH concentration in the test monkey plasma was calculated from the standard curve for the standard equine LH.
The results are given together in FIG. 1. […]

The target in data set [1] is T1, GnRH receptors (rat pituitary anterior lobe membrane fraction) (Rattus norvegicus, UniProt P30969).
T1 construct: Anterior lobes of the pituitary glands were isolated from forty Wistar rats; from tissue; host or cells: anterior lobes of pituitary glands of male Wistar rats
T1 sequence (P30969 1-327): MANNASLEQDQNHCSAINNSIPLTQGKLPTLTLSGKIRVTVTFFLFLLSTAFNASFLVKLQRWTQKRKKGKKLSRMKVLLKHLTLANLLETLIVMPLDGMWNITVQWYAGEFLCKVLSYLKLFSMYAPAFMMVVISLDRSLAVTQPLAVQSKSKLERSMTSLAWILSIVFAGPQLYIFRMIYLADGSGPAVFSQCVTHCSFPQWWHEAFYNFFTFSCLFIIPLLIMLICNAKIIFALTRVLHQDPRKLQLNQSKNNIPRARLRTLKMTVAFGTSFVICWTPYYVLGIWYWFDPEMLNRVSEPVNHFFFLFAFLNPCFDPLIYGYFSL
Put plainly: 125I-leuprorelin binding inhibition, rat pituitary anterior lobe membrane fraction. The protocol:
(1) Preparation of ^125I-leuprorelin To a tube containing 10 μl of a 3×10^−4M aqueous solution of leuprorelin and 10 μl of 0.01 mg/ml lactoperoxidase, 10 μl (37MBq) of a solution of Na^125I was added. After stirring, 10 μl of 0.001% H2O2 was added, and a reaction was carried out at room temperature for 20 minutes. By adding 700 μl of a 0.05% TFA (trifluoroacetic acid) solution, the reaction was stopped, followed by purification by reversed-phase HPLC. The HPLC conditions used are shown below. ^125I-leuprorelin was eluted at a retention time of 26 to 27 minutes. […] To determine maximum binding quantity, a reaction mixture of 2 μl of 60% DMSO and 10 μl of 38 nM ^125I-leuprorelin was prepared. […] After this filtration, the radioactivity of ^125I-leuprorelin remaining on the filter paper was measured with a γ-counter. The expression (TB-SB)/(TB-NSB)×100 (where SB=radioactivity with the compound added, TB=maximum bound radioactivity, NSB=nonspecifically bound radioactivity) was calculated to find the binding inhibition rate (%) of each test compound. […]

Another data set deals with T2, human GnRH receptor (Homo sapiens, UniProt P30968).
T2 construct: expressed in transfected cells; host or cells: CHO (Chinese hamster ovary) cells
T2 sequence (P30968 1-328): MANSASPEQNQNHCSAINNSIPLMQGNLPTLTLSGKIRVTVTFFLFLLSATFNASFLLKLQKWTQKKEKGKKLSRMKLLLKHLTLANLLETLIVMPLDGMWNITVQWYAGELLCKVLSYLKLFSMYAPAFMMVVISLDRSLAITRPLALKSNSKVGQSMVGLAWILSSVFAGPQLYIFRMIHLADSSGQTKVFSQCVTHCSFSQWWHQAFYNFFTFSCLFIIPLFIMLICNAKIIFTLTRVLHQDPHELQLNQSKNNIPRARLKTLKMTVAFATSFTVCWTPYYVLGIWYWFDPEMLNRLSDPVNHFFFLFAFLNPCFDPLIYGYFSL
Kind of data set: 125I-leuprorelin binding inhibition, CHO cell membrane fraction containing human GnRH receptor. As to conditions: 25° C. for 60 minutes, Hill plot.

Method for human GnRH receptor: To the cell pellet, 10 ml of a cell homogenate buffer (10 mM NaHCO3, 5 mM EDTA, pH 7.5) was added, followed by homogenization using the Polytron homogenizer. […] This precipitate was suspended in 2 ml of an assay buffer and centrifuged at 100,000×g for 1 hour. The membrane fraction recovered as a precipitate was again suspended in 20 ml of the assay buffer, dispensed, and stored at −80° C. before use upon thawing. […] To determine maximum binding quantity, a reaction mixture of 2 μl of 60% DMSO and 10 μl of 38 nM ^125I-leuprorelin was prepared. […] Where the membrane fraction of the CHO with human GnRH receptors expressed was used, the reaction was carried out at 25° C. for 60 minutes. After each reaction, the reaction mixture was aspirated and filtered through a polyethyleneimine-treated Whatman glass filter (GF-F). After this filtration, the radioactivity of ^125I-leuprorelin remaining on the filter paper was measured with a γ-counter. The expression (TB-SB)/(TB-NSB)×100 (where SB=radioactivity with the compound added, TB=maximum bound radioactivity, NSB=nonspecifically bound radioactivity) was calculated to find the binding inhibition rate (%) of each test compound. Furthermore, the inhibition rate was determined by varying the concentration of the test substance and the 50% inhibitory concentration (IC50 value) of the compound was calculated from Hill plot.

For the compound `CONC(=O)Nc1ccc(-c2sc3c(c2CN(C)Cc2ccccc2)c(=O)n(-c2ccccc2)c(=O)n3Cc2c(F)cccc2F)cc1.Cl` [Ex. Compd. No. 2, 5-(N-Benzyl-N-methylaminomethyl)-1-(2,6-difluorobenzyl)-6-[4-(3-methoxyureido)phenyl]-3-phenylthieno[2,3-d]pyrimidine-2,4(1H,3H)-dione hydrochloride], the “plasma LH concentration, percentage of the baseline LH concentration immediately before administration” value in the data set with plasma LH (30 mg/kg oral in 0.5% methyl cellulose, by 24 hours after administration) is not above 20%. In addition, the “plasma LH concentration at 48 hours after administration” value in the data set with plasma LH (30 mg/kg oral, 48 hours after administration) is reported as “re-elevation of the plasma LH concentration was noted”. The “effect on blood LH concentration” value with plasma LH (administered orally, 30 mg/kg) is listed as “significant depressive effect on blood LH concentration”.
As for `CONC(=O)Nc1ccc(-c2sc3c(c2CN2Cc4ccccc4C2)c(=O)n(-c2ccccc2)c(=O)n3Cc2c(F)cccc2F)cc1` [Ex. Compd. No. 4-2], the concentration for half-maximal inhibition (IC50) in data set [1] (125I-leuprorelin binding, calculated from Hill plot) is 0.5 µM; on human GnRH receptor, 0.0002 µM. For the same compound, the inhibition at 1 µM in data set [1] (read-out: binding inhibition rate (%) Rat (1 μM), 1 μM compound, 125I-leuprorelin, 4° C. for 90 minutes) came to 64%.
For `CN(Cc1ccccc1)Cc1c(-c2ccc(NC(=O)NO)cc2)sc2c1c(=O)n(-c1ccccc1)c(=O)n2Cc1c(F)cccc1F` [Example 5, 5-(N-Benzyl-N-methylaminomethyl)-1-(2,6-difluorobenzyl)-6-[4-(3-hydroxyureido)phenyl]-3-phenylthieno[2,3-d]pyrimidine-2,4(1H,3H)-dione], the melting point fell in the range of 164 to 165 °C.
On the same count and under the same terms, next, `CN(Cc1ccccc1)Cc1c(-c2ccc(NC(=O)NCCO)cc2)sc2c1c(=O)n(-c1ccccc1)c(=O)n2Cc1c(F)cccc1F` [Example 7, 5-(N-Benzyl-N-methylaminomethyl)-1-(2,6-difluorobenzyl)-6-[4-[3-(2-hydroxyethyl)ureido]phenyl]-3-phenylthieno[2,3-d]pyrimidine-2,4(1H,3H)-dione]: 220 to 222 °C.
